Assay results reported in US12257246B2, “Composition of 2,4,6-trifluoro-n-[6-(1-methyl-piperidin-4-carbonyl)-pyridin-2-yl[-benzamide” (CoLucid Pharmaceuticals, Inc., priority 2009, dated 2025).
Entries after “also recorded” stand apart in the source; their conditions may differ. Marks after values point to notes of the source that are not given here.

System: migraine attack
Experiment: Intravenous dose-finding study in acute migraine: headache response (moderate or severe becoming mild or none) and secondary efficacy
Type: in vivo, human
Protocol: Preclinical and early clinical experiments predict acute anti-migraine efficacy of Compound I that is mediated through a non-vascular, primarily neural, mechanism. In a multi-centre, placebo-controlled, double-blind, group-sequential, adaptive treatment-assignment, proof-of-concept and dose-finding study, 130 patients were treated in-hospital during a migraine attack. Patients were allocated to an intravenous dose level of Compound I or placebo in small cohorts. The starting dose was 2.5 mg. Subsequent doses were adjusted, up or down, according to the safety and efficacy seen in the preceding cohort. The primary outcome measure was headache response defined as improvement from moderate or severe headache at baseline to mild or no headache at 2 hours post-dose. The study was designed to explore the overall dose response relationship but was not powered to differentiate individual doses from placebo, nor to detect effect differences for other migraine symptoms.
The study used a prospective, randomized, double-blind, placebo-controlled design with group-sequential adaptive-treatment assignment (Olesen J et al., N Engl J Med 2004: 350: 1104-10; Hall D B et al., Contemporary Clinical Trials 2005; 26: 349-63). […] The first cohort was allocated to the 2.5 mg dose level. The dose used in subsequent cohorts depended on the headache response (moderate or severe headache reduced to mild or none at 2 hours) of the previous cohort: if 2 or less of the 4 active-treated patients had responded, the dose was increased, and if 3 or more of the 4 active-treated patients had responded, the dose was reduced. The dose adjustment rules were chosen to identify doses of Compound I with efficacy similar to or better than an oral triptan. […] The occurrence of a drug-related serious adverse event would lead to automatic suspension of the randomization pending a safety review.
Patients were initially screened for eligibility at an out-patient visit outside a migraine attack, and were invited to return to the clinic for treatment with study medication of a new, moderate or severe migraine attack within 4 hours of onset. On return to the clinic, eligibility for the study was reconfirmed and the patient was randomized. Patients were eligible for the study if they were between 18 and 65 years of age and had at least a 1 year history of migraine with or without aura fulfilling the IHS diagnostic criteria 1.1 and 1.2.1 (2004), with a migraine onset before the age of 50 years (Headache Classification Subcommittee of the International Headache Society. The International Classification of Headache Disorders (second edition). Cephalalgia 2004: 24; Supp11:1-160). Patients had to be experiencing between 1 and 8 migraine attacks a month and not be using migraine prophylactic medication. Patients were in good general health and had no evidence of vascular disease or hypertension. Patients with previous intolerance of triptans were excluded. Pregnant or breast-feeding women were excluded, as were women of childbearing potential who were not using a highly reliable form of contraception.
On return of the patient to the clinic, instructions for dilution of study drug were obtained from an online randomization system by a pharmacist or other study personnel, independent of the investigator, and the study drug for infusion was prepared. Both investigator and pharmacist were blinded with regard to active or placebo and only the pharmacist knew the dilution. All patients received a 60 ml intravenous infusion over 20 minutes. Efficacy and safety data before and after administration of study drug were entered immediately into an electronic data capture system, so allowing the headache response to be used to drive dose-allocation for subsequent cohorts.
Data were entered concurrently into an online electronic data capture system. Patients were discharged from the clinic after 4 h and continued to record migraine symptoms and adverse events until 24 h using a diary card. […]

CN1CCC(C(=O)c2cccc(NC(=O)c3c(F)cc(F)cc3F)n2)CC1 [Compound I, 2,4,6-trifluoro-N-[6-(1-methyl-piperidin-4-ylcarbonyl)-pyridin-2-yl]-benzamide]
Impression: very much/much better 2h (2.5 mg iv): 75.0% of Patients | Nausea 2 h (2.5 mg iv): 25.0% of Patients | No/mild disability 2 h (2.5 mg iv): 75.0% of Patients | Pain freedom 2 h (2.5 mg iv): 0.0% of Patients | Phonophobia 2 h (2.5 mg iv): 25.0% of Patients | Photophobia 2 h (2.5 mg iv): 25.0% of Patients | Sustained pain free (2.5 mg iv): 0.0% of Patients | Sustained pain response (2.5 mg iv): 50.0% of Patients | Use of rescue medication, 2-24 h (2.5 mg iv): 25.0% of Patients | Proportion of Patients with headache response (2.5 mg iv, 10 min post dose): 0.0% of Patients | Proportion of Patients with headache response (2.5 mg iv, 20 min post dose): 0.0% of Patients | Proportion of Patients with headache response (2.5 mg iv, 40 min post dose): 0.0% of Patients | Proportion of Patients with headache response (2.5 mg iv, 60 min post dose): 50.0% of Patients | Proportion of Patients with headache response (2.5 mg iv, 90 min post dose): 50.0% of Patients | Proportion of Patients with headache response (2.5 mg iv, 120 min post dose): 50.0% of Patients | Proportion of Patients with headache response (2.5 mg iv, 180 min post dose): 50.0% of Patients | Proportion of Patients with headache response (2.5 mg iv, 240 min post dose): 75.0% of Patients | Impression: very much/much better 2h (5 mg iv): 8.3% of Patients | Nausea 2 h (5 mg iv): 41.7% of Patients | No/mild disability 2 h (5 mg iv): 16.6% of Patients | Pain freedom 2 h (5 mg iv): 0.0% of Patients | Phonophobia 2 h (5 mg iv): 41.7% of Patients | Photophobia 2 h (5 mg iv): 75.0% of Patients | Sustained pain free (5 mg iv): 0.0% of Patients | Sustained pain response (5 mg iv): 8.3% of Patients | Use of rescue medication, 2-24 h (5 mg iv): 91.7% of Patients | Proportion of Patients with headache response (5 mg iv, 10 min post dose): 8.3% of Patients | Proportion of Patients with headache response (5 mg iv, 20 min post dose): 16.7% of Patients | Proportion of Patients with headache response (5 mg iv, 40 min post dose): 25.0% of Patients | Proportion of Patients with headache response (5 mg iv, 60 min post dose): 25.0% of Patients | Proportion of Patients with headache response (5 mg iv, 90 min post dose): 25.0% of Patients | Proportion of Patients with headache response (5 mg iv, 120 min post dose): 16.7% of Patients | Proportion of Patients with headache response (5 mg iv, 180 min post dose): 25.0% of Patients | Proportion of Patients with headache response (5 mg iv, 240 min post dose): 33.3% of Patients | Impression: very much/much better 2h (10 mg iv): 37.5% of Patients | Nausea 2 h (10 mg iv): 12.5% of Patients | No/mild disability 2 h (10 mg iv): 54.2% of Patients | Pain freedom 2 h (10 mg iv): 20.8% of Patients | Phonophobia 2 h (10 mg iv): 25.0% of Patients | Photophobia 2 h (10 mg iv): 45.8% of Patients | Sustained pain free (10 mg iv): 12.5% of Patients | Sustained pain response (10 mg iv): 33.3% of Patients | Use of rescue medication, 2-24 h (10 mg iv): 58.3% of Patients | Proportion of Patients with headache response (10 mg iv, 10 min post dose): 8.3% of Patients | Proportion of Patients with headache response (10 mg iv, 20 min post dose): 25.0% of Patients | Proportion of Patients with headache response (10 mg iv, 40 min post dose): 37.5% of Patients | Proportion of Patients with headache response (10 mg iv, 60 min post dose): 50.0% of Patients | Proportion of Patients with headache response (10 mg iv, 90 min post dose): 45.8% of Patients | Proportion of Patients with headache response (10 mg iv, 120 min post dose): 54.2% of Patients | Proportion of Patients with headache response (10 mg iv, 180 min post dose): 54.2% of Patients | Proportion of Patients with headache response (10 mg iv, 240 min post dose): 54.2% of Patients | onset of headache relief (20 mg and 30 mg iv): speed onset of headache relief; also recorded: rapid onset of headache relief | Impression: very much/much better 2h (20 mg iv): 42.9% of Patients | Nausea 2 h (20 mg iv): 21.4% of Patients | No/mild disability 2 h (20 mg iv): 57.1% of Patients | Pain freedom 2 h (20 mg iv): 28.6% of Patients | Phonophobia 2 h (20 mg iv): 25.0% of Patients | Photophobia 2 h (20 mg iv): 42.9% of Patients | Sustained pain free (20 mg iv): 17.9% of Patients | Sustained pain response (20 mg iv): 35.7% of Patients | Use of rescue medication, 2-24 h (20 mg iv): 53.6% of Patients | Proportion of Patients with headache response (20 mg iv, 10 min post dose): 14.3% of Patients | Proportion of Patients with headache response (20 mg iv, 20 min post dose): 39.3% of Patients | Proportion of Patients with headache response (20 mg iv, 40 min post dose): 50.0% of Patients | Proportion of Patients with headache response (20 mg iv, 60 min post dose): 53.6% of Patients | Proportion of Patients with headache response (20 mg iv, 90 min post dose): 53.6% of Patients | Proportion of Patients with headache response (20 mg iv, 120 min post dose): 64.3% of Patients | Proportion of Patients with headache response (20 mg iv, 180 min post dose): 60.7* Percent of Patients | Proportion of Patients with headache response (20 mg iv, 240 min post dose): 57.1* Percent of Patients | Impression: very much/much better 2h (30 mg iv): 68.8% of Patients | Nausea 2 h (30 mg iv): 6.3% of Patients | No/mild disability 2 h (30 mg iv): 75.1% of Patients | Pain freedom 2 h (30 mg iv): 37.5% of Patients | Phonophobia 2 h (30 mg iv): 25.0% of Patients | Photophobia 2 h (30 mg iv): 25.0% of Patients | Sustained pain free (30 mg iv): 18.8% of Patients | Sustained pain response (30 mg iv): 56.3% of Patients | Use of rescue medication, 2-24 h (30 mg iv): 37.5% of Patients | associated symptoms (photophobia, phonophobia, nausea) (30 mg iv): reduced associated symptoms of photophobia, phonophobia, and nausea | headache recurrence within 24 hours (30 mg iv): reduced headache recurrence | moderate or severe disability reported (30 mg iv): reduced the percent of moderate or severe disability reported | patient global impression 2 hours post dose (30 mg iv): increased the number of patients who felt much or very much better; also recorded: increase in the number of patients who felt much better or very much better | use of rescue medication (30 mg iv): reduced the use of rescue medication | pain free at 2 hours versus placebo (30 mg iv over 20 minutes): completely abolished headache in a greater number of patients than placebo; also recorded: completely abolishes headache (‘pain free’) in a greater number of patients than placebo | Proportion of Patients with headache response (30 mg iv, 10 min post dose): 12.5% of Patients | Proportion of Patients with headache response (30 mg iv, 20 min post dose): 50.0% of Patients | Proportion of Patients with headache response (30 mg iv, 40 min post dose): 75.0* Percent of Patients | Proportion of Patients with headache response (30 mg iv, 60 min post dose): 75.0* Percent of Patients | Proportion of Patients with headache response (30 mg iv, 90 min post dose): 68.8% of Patients | Proportion of Patients with headache response (30 mg iv, 120 min post dose): 68.8% of Patients | Proportion of Patients with headache response (30 mg iv, 180 min post dose): 68.8* Percent of Patients | Proportion of Patients with headache response (30 mg iv, 240 min post dose): 68.8* Percent of Patients | Impression: very much/much better 2h (45 mg iv): 50.0% of Patients | Nausea 2 h (45 mg iv): 25.0% of Patients | No/mild disability 2 h (45 mg iv): 25.0% of Patients | Pain freedom 2 h (45 mg iv): 25.0% of Patients | Phonophobia 2 h (45 mg iv): 25.0% of Patients | Photophobia 2 h (45 mg iv): 25.0% of Patients | Sustained pain free (45 mg iv): 25.0% of Patients | Sustained pain response (45 mg iv): 25.0% of Patients | Use of rescue medication, 2-24 h (45 mg iv): 25.0% of Patients | Proportion of Patients with headache response (45 mg iv, 10 min post dose): 75.0* Percent of Patients | Proportion of Patients with headache response (45 mg iv, 20 min post dose): 75.0% of Patients | Proportion of Patients with headache response (45 mg iv, 40 min post dose): 75.0% of Patients | Proportion of Patients with headache response (45 mg iv, 60 min post dose): 50.0% of Patients | Proportion of Patients with headache response (45 mg iv, 90 min post dose): 75.0% of Patients | Proportion of Patients with headache response (45 mg iv, 120 min post dose): 75.0% of Patients | Proportion of Patients with headache response (45 mg iv, 180 min post dose): 75.0% of Patients | Proportion of Patients with headache response (45 mg iv, 240 min post dose): 25.0% of Patients | time at which response starts to separate from placebo (doses of 20 mg and above, after start of infusion): 20 min | efficacy in acute treatment of migraine (intravenous doses of 20 mg and higher): proved effective | effective dose identified by predefined stopping rules (iv over 20 min, primary endpoint): 20 mg
